Results published in ChEMBL document CHEMBL1152560, “Substituted 2-arylbenzothiazoles as kinase inhibitors: hit-to-lead optimization” (Bioorg Med Chem, 2009).

What was measured:
[1] = tested on: Epidermal growth factor receptor (Homo sapiens), P00533 [T790M]; test: Residual activity of EGFR T790M mutant at 1 uM by microplate scintillation counting
[2] = target: PAS domain-containing serine/threonine-protein kinase (Homo sapiens) (UniProt Q96RG2); test: Residual activity of PASK at 0.1 uM by microplate scintillation counting
Chain of PAS domain-containing serine/threonine-protein kinase (Homo sapiens) (Q96RG2 whole entry, the tested form may be a part): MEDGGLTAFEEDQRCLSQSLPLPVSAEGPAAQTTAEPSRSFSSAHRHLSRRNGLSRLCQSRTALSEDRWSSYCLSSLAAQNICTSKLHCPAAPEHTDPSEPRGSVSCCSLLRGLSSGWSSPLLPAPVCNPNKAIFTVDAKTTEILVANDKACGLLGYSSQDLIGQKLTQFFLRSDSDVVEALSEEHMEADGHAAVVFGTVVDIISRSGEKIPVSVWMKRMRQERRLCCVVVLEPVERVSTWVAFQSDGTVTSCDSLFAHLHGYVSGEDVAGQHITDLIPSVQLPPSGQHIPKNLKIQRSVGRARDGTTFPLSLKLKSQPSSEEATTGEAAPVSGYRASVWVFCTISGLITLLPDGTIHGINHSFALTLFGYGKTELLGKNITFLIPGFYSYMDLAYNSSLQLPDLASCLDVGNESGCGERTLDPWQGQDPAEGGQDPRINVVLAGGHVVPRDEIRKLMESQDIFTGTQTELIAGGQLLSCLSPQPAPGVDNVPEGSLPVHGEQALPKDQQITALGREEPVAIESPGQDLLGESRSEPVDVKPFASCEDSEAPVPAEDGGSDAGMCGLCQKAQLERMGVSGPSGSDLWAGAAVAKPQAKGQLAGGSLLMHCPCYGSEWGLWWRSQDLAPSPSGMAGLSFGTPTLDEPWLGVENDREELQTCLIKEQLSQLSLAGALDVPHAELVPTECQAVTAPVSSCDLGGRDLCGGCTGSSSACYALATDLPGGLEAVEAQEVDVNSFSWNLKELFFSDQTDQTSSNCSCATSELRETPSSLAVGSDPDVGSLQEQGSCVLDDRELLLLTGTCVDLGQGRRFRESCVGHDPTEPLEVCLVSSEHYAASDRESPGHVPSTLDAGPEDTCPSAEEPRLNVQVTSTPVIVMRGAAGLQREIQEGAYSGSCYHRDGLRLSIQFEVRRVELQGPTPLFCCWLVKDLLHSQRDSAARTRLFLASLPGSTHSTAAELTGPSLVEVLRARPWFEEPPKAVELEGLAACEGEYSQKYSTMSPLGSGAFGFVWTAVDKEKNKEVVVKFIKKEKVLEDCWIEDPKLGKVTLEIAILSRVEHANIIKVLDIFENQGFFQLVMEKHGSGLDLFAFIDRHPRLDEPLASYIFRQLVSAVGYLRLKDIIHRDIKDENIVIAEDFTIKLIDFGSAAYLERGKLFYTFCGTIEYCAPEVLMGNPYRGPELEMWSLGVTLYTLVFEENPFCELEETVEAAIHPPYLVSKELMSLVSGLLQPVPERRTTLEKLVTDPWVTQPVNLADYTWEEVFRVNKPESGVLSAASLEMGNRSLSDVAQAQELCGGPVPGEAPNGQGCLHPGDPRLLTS

[3] = target: Tyrosine-protein kinase receptor UFO (Homo sapiens) (UniProt P30530); test: Residual activity of AXL at 10 uM by microplate scintillation counting
[4] = target: Vascular endothelial growth factor receptor 1 (Homo sapiens) (UniProt P17948); test: Residual activity of VEGFR1 at 1 uM by microplate scintillation counting
Chain of Vascular endothelial growth factor receptor 1 (Homo sapiens) (P17948 whole entry): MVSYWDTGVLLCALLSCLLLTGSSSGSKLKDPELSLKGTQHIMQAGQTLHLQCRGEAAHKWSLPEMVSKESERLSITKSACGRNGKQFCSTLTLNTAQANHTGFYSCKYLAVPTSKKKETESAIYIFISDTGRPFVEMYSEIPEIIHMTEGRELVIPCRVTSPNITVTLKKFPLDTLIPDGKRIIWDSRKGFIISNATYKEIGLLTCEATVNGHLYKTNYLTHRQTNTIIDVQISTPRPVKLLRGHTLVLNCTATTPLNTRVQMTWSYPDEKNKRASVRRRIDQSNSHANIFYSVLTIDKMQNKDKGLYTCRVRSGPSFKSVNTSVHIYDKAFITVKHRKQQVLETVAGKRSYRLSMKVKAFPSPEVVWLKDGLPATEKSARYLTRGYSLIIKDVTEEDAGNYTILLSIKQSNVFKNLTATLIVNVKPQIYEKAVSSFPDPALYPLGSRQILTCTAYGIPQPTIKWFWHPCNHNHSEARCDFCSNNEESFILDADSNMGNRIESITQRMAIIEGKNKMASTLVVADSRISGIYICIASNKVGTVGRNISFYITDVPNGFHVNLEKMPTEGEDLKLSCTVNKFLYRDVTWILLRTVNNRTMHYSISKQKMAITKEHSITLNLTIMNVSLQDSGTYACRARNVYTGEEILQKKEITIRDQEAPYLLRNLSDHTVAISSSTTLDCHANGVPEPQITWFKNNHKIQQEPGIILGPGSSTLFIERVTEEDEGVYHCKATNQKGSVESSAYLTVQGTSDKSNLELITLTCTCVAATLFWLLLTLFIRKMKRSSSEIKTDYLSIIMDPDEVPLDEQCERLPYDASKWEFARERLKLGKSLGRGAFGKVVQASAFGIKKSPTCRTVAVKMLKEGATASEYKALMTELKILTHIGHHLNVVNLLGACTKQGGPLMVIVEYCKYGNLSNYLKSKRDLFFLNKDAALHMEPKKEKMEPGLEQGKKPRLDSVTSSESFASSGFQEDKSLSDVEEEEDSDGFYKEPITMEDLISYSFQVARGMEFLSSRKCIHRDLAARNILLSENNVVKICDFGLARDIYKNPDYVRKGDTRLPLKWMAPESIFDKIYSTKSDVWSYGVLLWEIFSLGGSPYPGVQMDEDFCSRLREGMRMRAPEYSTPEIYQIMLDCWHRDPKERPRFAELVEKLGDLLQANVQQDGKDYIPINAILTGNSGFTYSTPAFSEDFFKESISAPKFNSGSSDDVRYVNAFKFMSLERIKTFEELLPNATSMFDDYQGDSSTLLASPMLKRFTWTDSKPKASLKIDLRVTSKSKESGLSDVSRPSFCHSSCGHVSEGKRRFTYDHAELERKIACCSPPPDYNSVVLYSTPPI

[5] = target: T1, Serine/threonine-protein kinase NLK (Homo sapiens) (UniProt Q9UBE8); test: Residual activity of NLK at 10 uM by microplate scintillation counting
T1 sequence (whole entry): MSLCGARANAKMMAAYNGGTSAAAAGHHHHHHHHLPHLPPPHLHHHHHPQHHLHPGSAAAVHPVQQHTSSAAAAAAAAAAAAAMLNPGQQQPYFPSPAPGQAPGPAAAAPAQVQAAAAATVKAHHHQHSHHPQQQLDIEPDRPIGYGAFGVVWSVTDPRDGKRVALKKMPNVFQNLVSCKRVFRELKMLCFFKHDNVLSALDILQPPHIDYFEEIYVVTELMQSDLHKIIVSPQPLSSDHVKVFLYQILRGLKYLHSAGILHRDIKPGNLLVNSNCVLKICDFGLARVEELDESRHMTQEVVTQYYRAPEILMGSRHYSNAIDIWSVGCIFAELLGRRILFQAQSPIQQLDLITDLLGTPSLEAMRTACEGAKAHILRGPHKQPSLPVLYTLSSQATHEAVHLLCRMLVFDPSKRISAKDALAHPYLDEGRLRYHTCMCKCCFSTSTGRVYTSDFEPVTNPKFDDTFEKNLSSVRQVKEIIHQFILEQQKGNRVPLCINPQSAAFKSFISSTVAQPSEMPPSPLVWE

[6] = target: Serine/threonine-protein kinase N2 (Homo sapiens) (UniProt Q16513); test: Residual activity of PRK2 at 1 uM by microplate scintillation counting
Chain of Serine/threonine-protein kinase N2 (Homo sapiens) (Q16513 whole entry, looked up): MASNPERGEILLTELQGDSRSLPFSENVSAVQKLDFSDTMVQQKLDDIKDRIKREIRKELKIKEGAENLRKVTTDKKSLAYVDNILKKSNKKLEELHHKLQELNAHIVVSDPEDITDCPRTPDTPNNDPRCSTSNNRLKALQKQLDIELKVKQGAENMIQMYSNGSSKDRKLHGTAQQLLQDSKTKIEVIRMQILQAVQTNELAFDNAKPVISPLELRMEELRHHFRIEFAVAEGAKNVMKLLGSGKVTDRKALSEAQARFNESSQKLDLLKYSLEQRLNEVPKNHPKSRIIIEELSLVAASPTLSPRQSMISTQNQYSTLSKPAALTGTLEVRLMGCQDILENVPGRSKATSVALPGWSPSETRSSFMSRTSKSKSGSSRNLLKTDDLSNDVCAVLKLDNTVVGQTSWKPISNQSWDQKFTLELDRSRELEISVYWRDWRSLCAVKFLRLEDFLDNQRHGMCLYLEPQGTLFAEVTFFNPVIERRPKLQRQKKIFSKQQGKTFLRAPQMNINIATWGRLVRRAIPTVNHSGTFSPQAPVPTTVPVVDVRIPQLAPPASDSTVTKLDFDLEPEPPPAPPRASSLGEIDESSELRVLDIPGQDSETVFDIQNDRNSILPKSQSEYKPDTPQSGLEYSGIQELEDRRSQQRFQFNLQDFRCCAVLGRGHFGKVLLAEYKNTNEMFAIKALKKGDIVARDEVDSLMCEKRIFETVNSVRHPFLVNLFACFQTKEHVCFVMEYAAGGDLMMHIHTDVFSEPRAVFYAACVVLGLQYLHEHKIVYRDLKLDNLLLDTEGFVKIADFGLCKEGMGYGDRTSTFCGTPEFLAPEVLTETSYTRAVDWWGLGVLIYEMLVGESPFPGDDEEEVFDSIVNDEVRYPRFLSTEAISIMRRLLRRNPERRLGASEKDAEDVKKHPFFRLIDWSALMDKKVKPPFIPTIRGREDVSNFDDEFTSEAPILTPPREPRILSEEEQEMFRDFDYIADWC

[7] = target: Tyrosine-protein kinase Blk (Homo sapiens) (UniProt P51451); test: Residual activity of BLK at 1 uM by microplate scintillation counting
[8] = target: Platelet-derived growth factor receptor beta (Homo sapiens, UniProt P09619); test: Residual activity of PDGFRbeta at 10 uM by microplate scintillation counting
Chain of Platelet-derived growth factor receptor beta (P09619 whole entry): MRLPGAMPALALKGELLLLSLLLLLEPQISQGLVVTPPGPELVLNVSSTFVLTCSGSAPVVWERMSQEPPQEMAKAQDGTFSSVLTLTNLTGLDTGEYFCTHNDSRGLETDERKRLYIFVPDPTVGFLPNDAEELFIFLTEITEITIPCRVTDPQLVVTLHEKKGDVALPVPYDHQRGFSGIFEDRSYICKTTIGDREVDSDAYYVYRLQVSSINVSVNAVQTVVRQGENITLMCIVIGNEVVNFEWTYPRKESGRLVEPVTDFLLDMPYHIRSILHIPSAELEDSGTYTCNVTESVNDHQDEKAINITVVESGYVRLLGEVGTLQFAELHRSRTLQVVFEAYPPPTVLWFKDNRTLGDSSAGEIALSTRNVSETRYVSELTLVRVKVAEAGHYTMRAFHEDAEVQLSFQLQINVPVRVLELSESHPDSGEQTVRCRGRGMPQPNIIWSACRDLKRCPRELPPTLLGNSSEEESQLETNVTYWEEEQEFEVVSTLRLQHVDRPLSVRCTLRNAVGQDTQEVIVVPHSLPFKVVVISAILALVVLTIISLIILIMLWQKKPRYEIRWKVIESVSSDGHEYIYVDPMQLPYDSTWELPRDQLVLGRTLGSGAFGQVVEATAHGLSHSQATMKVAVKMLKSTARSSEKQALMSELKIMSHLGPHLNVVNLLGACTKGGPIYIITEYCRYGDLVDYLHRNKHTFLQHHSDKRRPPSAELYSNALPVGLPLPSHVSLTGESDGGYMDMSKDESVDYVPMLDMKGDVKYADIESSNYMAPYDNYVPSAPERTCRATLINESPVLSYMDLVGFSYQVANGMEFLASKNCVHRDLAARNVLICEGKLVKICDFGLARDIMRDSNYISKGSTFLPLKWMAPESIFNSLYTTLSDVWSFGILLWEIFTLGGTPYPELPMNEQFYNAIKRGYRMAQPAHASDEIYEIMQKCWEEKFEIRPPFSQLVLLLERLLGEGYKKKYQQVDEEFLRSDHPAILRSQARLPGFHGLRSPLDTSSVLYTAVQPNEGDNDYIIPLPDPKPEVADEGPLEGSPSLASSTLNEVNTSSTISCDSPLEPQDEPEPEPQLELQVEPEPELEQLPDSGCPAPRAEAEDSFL

[9] = target: T2, Calcium/calmodulin-dependent protein kinase type IV (Homo sapiens) (UniProt Q16566); test: Residual activity of CAMK4 at 0.1 uM by microplate scintillation counting
T2 sequence (whole entry): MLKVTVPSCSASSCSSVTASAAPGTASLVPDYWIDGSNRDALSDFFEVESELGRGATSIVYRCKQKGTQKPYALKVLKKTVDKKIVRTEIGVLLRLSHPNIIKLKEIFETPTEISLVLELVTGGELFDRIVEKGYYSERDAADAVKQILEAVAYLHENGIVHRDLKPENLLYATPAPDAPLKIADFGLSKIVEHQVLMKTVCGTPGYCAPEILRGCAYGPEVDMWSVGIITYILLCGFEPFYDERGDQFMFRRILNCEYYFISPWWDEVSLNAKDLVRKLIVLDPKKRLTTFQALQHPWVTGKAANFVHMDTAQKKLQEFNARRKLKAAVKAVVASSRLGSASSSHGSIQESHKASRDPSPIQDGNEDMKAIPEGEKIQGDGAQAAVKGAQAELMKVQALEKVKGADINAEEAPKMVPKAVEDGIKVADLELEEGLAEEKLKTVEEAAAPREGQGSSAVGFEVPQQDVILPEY

[10] = target: T3, Myotonin-protein kinase (Homo sapiens) (UniProt Q09013); test: Residual activity of DMPK at 0.1 uM by microplate scintillation counting
T3 sequence (whole entry): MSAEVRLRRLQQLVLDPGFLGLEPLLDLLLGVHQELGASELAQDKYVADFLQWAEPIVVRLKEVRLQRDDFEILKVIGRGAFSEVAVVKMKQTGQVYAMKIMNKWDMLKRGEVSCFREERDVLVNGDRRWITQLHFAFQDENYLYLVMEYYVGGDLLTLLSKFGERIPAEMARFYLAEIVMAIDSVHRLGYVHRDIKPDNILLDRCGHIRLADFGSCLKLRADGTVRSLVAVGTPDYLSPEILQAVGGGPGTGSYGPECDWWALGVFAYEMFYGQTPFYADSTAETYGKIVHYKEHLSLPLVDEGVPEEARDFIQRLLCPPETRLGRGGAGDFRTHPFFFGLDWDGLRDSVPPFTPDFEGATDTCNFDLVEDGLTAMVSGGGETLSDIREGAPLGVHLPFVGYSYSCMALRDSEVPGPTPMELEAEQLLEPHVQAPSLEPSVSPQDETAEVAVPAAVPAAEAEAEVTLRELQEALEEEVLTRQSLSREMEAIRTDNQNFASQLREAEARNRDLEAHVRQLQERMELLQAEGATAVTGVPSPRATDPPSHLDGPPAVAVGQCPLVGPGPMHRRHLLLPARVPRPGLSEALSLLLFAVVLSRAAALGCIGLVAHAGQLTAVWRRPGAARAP

[11] = target: SRSF protein kinase 3 (Homo sapiens) (UniProt Q9UPE1); test: Residual activity of STK23 at 10 uM by microplate scintillation counting
[12] = target: T4, Serine/threonine-protein kinase 4 (Homo sapiens) (UniProt Q13043); test: Residual activity of MST1 at 0.1 uM by microplate scintillation counting
T4 sequence (whole entry): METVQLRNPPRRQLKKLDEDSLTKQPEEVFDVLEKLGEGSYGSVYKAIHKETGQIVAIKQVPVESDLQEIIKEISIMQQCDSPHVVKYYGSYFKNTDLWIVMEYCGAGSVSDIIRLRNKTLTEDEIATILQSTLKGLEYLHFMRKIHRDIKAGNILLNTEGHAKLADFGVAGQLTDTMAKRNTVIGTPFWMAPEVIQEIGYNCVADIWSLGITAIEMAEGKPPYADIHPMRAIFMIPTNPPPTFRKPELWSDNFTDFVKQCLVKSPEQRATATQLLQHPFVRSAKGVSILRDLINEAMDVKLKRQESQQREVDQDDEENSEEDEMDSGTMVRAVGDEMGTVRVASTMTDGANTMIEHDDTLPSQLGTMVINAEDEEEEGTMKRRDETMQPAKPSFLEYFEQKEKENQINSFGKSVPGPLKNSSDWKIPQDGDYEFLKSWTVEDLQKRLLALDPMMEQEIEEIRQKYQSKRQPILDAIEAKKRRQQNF

| residual activity [1] [%] | residual activity [2] [%] | residual activity [3] [%] | residual activity [4] [%] | residual activity [5] [%] | residual activity [6] [%] | residual activity [7] [%] | residual activity [8] [%] | residual activity [9] [%] | residual activity [10] [%] | residual activity [11] [%] | residual activity [12] [%] | SMILES |
| --- | --- | --- | --- | --- | --- | --- | --- | --- | --- | --- | --- | --- |
| 88 | 92 | 125 | 75 | 113 | 66 | 63 | 21 | 96 | 128 | 110 | 96 | COc1cc2c(Oc3ccc(-c4nc5ccccc5s4)cc3)ncnc2cc1OCCCN1CCN(C)CC1 |
| 85 | 99 | 57 | 74 | 90 | 97 | 64 | 43 | 102 | 110 | 113 | 96 | COc1cc2c(Oc3ccc(-c4nc5ccccc5s4)cc3)ncnc2cc1OCCCN1CCCC1 |
| 88 | 89 | 54 | 74 | 114 | 70 | 58 | 33 | 97 | 102 | 111 | 104 | COc1cc2c(Oc3ccc(-c4nc5ccccc5s4)cc3F)ncnc2cc1OCCCN1CCN(C)CC1 |
